Reference: ChEMBL document CHEMBL1833942, “6-arylcoumarins as novel nonsteroidal type progesterone antagonists: an example with receptor-binding-dependent fluorescence” (J Med Chem, 2011)
Calls of active or inactive are those of the source. The rule behind the calls is not given here.

What was measured:
Progesterone receptor [1] = biological target: T1, Progesterone receptor (Homo sapiens, UniProt P06401); experiment: Antagonist activity at human progesterone receptor in T47D cells after 24 hrs by alkaline phosphatase assay; format: functional, cell-based
T1 sequence (P06401 whole entry): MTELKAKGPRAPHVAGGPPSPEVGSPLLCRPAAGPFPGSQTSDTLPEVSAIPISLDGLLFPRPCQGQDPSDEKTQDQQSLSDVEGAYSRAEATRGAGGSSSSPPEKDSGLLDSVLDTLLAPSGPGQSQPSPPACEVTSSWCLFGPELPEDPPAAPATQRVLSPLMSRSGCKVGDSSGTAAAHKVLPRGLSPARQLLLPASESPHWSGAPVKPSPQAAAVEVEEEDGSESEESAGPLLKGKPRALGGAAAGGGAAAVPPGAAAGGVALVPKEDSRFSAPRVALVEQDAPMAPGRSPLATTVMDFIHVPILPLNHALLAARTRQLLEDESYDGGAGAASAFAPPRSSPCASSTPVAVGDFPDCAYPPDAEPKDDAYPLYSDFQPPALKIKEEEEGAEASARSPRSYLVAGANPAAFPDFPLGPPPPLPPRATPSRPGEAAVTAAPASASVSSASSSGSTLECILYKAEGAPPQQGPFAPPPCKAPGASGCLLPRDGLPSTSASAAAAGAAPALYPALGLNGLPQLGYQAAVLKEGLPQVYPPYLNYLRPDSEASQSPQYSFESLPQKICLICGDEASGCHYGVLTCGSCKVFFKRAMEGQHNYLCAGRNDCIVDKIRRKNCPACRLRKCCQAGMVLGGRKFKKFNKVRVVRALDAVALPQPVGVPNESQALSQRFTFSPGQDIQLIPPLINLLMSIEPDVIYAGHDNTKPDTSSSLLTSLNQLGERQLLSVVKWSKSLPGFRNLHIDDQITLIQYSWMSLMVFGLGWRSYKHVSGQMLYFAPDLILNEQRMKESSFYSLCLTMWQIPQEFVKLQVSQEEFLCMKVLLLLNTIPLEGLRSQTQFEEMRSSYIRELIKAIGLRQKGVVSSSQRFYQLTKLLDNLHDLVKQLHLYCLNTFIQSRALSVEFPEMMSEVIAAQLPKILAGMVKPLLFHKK

Androgen receptor = biological target: T2, Androgen receptor (Homo sapiens, UniProt P10275); experiment: Displacement of [3H]DHT from human recombinant androgen receptor-LBD expressed in Escherichia coli after 18 hrs by liquid scintillation counting
T2 sequence (P10275 whole entry): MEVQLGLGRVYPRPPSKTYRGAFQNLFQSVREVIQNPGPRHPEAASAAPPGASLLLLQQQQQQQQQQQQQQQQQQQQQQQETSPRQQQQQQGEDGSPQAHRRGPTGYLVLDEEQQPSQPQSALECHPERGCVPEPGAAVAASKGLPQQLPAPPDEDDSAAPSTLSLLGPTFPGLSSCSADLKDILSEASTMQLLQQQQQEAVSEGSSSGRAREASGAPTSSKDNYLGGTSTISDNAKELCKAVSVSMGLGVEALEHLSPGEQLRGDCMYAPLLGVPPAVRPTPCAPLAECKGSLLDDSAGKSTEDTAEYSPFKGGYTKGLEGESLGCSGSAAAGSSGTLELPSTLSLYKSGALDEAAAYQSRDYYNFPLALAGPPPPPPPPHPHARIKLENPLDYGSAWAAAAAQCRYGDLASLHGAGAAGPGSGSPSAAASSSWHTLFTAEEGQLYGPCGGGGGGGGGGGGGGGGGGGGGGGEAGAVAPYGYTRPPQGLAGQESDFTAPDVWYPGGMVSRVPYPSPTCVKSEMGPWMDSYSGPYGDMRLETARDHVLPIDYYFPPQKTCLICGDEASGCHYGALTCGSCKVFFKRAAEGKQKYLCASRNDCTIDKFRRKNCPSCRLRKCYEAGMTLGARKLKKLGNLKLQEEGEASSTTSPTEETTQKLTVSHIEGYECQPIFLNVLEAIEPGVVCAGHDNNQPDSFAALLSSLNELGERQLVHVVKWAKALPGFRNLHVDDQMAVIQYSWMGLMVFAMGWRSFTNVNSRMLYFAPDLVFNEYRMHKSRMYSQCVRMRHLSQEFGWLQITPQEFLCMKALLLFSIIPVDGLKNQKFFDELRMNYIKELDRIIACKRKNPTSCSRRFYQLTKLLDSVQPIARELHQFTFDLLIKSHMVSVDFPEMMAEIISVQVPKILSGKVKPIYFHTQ

Glucocorticoid receptor = biological target: T3, Glucocorticoid receptor (Homo sapiens, UniProt P04150); experiment: Displacement of [3H]-dexamethasone from human recombinant glucocorticoid receptor after 18 hrs by liquid scintillation counting
T3 sequence (P04150 whole entry): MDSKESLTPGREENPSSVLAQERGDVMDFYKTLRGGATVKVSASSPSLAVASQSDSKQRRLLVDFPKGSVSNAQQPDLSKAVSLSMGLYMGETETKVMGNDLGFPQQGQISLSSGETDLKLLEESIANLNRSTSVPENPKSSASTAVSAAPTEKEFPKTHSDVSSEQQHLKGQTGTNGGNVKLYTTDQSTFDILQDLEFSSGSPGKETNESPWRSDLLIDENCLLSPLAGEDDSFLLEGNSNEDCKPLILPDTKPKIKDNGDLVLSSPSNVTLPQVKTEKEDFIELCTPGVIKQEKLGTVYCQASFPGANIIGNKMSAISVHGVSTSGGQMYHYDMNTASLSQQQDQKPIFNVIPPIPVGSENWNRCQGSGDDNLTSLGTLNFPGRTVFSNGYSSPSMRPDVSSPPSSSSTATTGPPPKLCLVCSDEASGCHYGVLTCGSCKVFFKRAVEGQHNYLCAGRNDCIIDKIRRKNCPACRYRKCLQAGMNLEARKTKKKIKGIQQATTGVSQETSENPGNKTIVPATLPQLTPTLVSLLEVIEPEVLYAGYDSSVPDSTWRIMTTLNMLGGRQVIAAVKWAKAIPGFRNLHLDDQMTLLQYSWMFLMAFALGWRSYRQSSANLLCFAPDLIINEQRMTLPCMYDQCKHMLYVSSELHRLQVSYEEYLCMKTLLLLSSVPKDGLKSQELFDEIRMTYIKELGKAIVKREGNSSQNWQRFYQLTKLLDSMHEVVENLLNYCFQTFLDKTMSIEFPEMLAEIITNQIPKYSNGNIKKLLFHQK

[2] = biological target: T4, Progesterone receptor (Homo sapiens) (UniProt P06401); experiment: Binding affinity to human PR LBD by fluorescence assay in presence of progesterone
T4 sequence (whole entry): T1 sequence (P06401 whole entry)

[3] = biological target: T4, Progesterone receptor (Homo sapiens); experiment: Antagonist activity at human progesterone receptor expressed in CHO cells at 10^-5 M after 24 hrs by luciferase reporter gene assay; format: functional, cell-based
[4] = biological target: T5, Estrogen receptor (Homo sapiens) (UniProt P03372); experiment: Binding affinity at human estrogen receptor by fluorescence assay
T5 sequence (whole entry): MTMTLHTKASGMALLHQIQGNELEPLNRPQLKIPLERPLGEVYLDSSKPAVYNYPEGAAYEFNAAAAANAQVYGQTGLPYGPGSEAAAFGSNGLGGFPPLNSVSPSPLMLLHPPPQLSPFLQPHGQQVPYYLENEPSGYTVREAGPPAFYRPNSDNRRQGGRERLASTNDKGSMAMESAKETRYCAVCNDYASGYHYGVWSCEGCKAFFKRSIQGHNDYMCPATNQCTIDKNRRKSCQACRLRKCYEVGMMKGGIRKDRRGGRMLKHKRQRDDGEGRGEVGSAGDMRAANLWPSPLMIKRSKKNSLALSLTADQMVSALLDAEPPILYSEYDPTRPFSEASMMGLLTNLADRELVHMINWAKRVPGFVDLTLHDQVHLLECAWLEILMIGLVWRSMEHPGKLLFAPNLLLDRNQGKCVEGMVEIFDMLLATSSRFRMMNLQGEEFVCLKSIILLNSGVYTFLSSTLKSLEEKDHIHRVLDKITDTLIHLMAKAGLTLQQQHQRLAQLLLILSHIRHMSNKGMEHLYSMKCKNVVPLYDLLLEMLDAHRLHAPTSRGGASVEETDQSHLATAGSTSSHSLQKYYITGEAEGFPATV

[5] = biological target: T4, Progesterone receptor (Homo sapiens); experiment: Binding affinity to human PR LBD by fluorescence assay
Progesterone receptor [6] = biological target: T1, Progesterone receptor; experiment: Displacement of [1,2,6,7-3H]PG from human PR-LBD after 24 hrs by liquid scintillation counting
[7] = biological target: T4, Progesterone receptor (Homo sapiens); experiment: Antagonist activity at human progesterone receptor expressed in CHO cells at 10^-7 M after 24 hrs by luciferase reporter gene assay; format: functional, cell-based
[8] = biological target: T4, Progesterone receptor (Homo sapiens); experiment: Antagonist activity at human progesterone receptor expressed in CHO cells at 10^-6 M after 24 hrs by luciferase reporter gene assay; format: functional, cell-based

With `CCOC(=O)c1cc2cc(-c3ccccc3)c(N(CC)CC)cc2oc1=O` the IC50 (Progesterone receptor [1]) was 4070 nM.

For `O=c1ccc2cc(-c3ccccc3)ccc2o1`, the IC50 (Progesterone receptor [1]) was 510 nM.

`CCN(CC)c1cc2oc(=O)ccc2cc1-c1ccc(F)cc1` gave an IC50 (Progesterone receptor [1]) of 630 nM.

For `N#Cc1cccc(-c2ccc3oc(=O)ccc3c2)c1`, the IC50 (Progesterone receptor [1]) was 1110 nM.

Molecule `O=c1ccc2cc(-c3cccc(C(F)(F)F)c3)ccc2o1` has an IC50 (Progesterone receptor [1]) of 190 nM.

With `CCN(CC)c1cc2oc(=O)ccc2cc1-c1ccccc1` the IC50 (Androgen receptor) was 10000 nM, the IC50 (Glucocorticoid receptor) was 3540 nM and the Activity [2] was “inactive”. The Activity [3] was “Active”, the IC50 (Progesterone receptor [1]) was 500 nM and the Activity [4] was “inactive”. The Activity [5] was “Active”, the IC50 (Progesterone receptor [6]) was 1420 nM and the Activity [7] was “Active”. For the same molecule, the Activity [8] was “Active”.

`CCN(CC)c1cc2oc(=O)ccc2cc1-c1ccc(Cl)cc1` showed an IC50 (Progesterone receptor [1]) of 770 nM.

With `CN(C)c1ccc(-c2ccc3oc(=O)ccc3c2)cc1` the IC50 (Progesterone receptor [1]) was 310 nM.

With `CCN(CC)c1cc2oc(=O)ccc2cc1-c1ccc([N+](=O)[O-])cc1` the IC50 (Progesterone receptor [1]) was 860 nM.

Molecule `COc1cc2oc(=O)ccc2cc1-c1ccc(N(C)C)cc1` has an IC50 (Progesterone receptor [1]) of 3340 nM.

In the case of `O=c1ccc2cc(-c3ccco3)ccc2o1`, the IC50 (Progesterone receptor [1]) is reported as 1280 nM.

`CCN(CC)c1cc2oc(=O)ccc2cc1-c1cccc(C#N)c1` showed an IC50 (Progesterone receptor [1]) of 380 nM.

For `CCN(CC)c1cc2oc(=O)ccc2cc1-c1cccs1`, the IC50 (Androgen receptor) was 9700 nM, the IC50 (Glucocorticoid receptor) was 4960 nM and the Activity [3] was “Active”. For the same molecule, the IC50 (Progesterone receptor [1]) was 220 nM, the IC50 (Progesterone receptor [6]) was 1240 nM and the Activity [7] was “Active”. The Activity [8] was “Active”.

For `N#Cc1ccc(-c2ccc3oc(=O)ccc3c2)cc1`, the IC50 (Progesterone receptor [1]) was 290 nM.

With `Cn1c(C#N)ccc1-c1ccc2oc(=O)ccc2c1` the Activity [3] was “Active”, the IC50 (Progesterone receptor [1]) was 65 nM and the IC50 (Progesterone receptor [6]) was 15200 nM. The Activity [7] was “Active” and the Activity [8] was “Active”.

`CN(C)c1cc2oc(=O)ccc2cc1-c1ccc(C#N)cc1` gave an IC50 (Progesterone receptor [1]) of 250 nM.

With `O=c1ccc2cc(-c3ccc(Cl)s3)ccc2o1` the Activity [3] was “Active”, the IC50 (Progesterone receptor [1]) was 120 nM and the IC50 (Progesterone receptor [6]) was 50500 nM. For the same molecule, the Activity [7] was “Active” and the Activity [8] was “Active”.

`CN(C)c1ccc(-c2cc3ccc(=O)oc3cc2O)cc1` was tested, and the IC50 (Progesterone receptor [1]) was 2590 nM.

`O=c1ccc2cc(-c3cc(F)cc(F)c3)ccc2o1` showed an IC50 (Progesterone receptor [1]) of 560 nM.

For `CN(C)c1cc2oc(=O)ccc2cc1-c1ccc(F)cc1`, the IC50 (Progesterone receptor [1]) was 470 nM.

With `O=c1ccc2cc(-c3cccs3)ccc2o1` the Activity [3] was “Active”, the IC50 (Progesterone receptor [1]) was 540 nM and the IC50 (Progesterone receptor [6]) was 10000 nM. For the same molecule, the Activity [7] was “Active” and the Activity [8] was “Active”.

Molecule `CCN(CC)c1cc2oc(=O)ccc2cc1-c1ccc(N(C)C)cc1` has an IC50 (Progesterone receptor [1]) of 390 nM.

In the case of `O=c1ccc2cc(-c3ccc(F)cc3)ccc2o1`, the IC50 (Progesterone receptor [1]) is reported as 210 nM.

Work on `O=c1ccc2cc(-c3cccc(-c4cccnc4)c3)ccc2o1` yielded an IC50 (Progesterone receptor [1]) of 27900 nM.

With `CCN(CC)c1cc2oc(=O)ccc2cc1-c1ccc(C(C)=O)cc1` the IC50 (Progesterone receptor [1]) was 400 nM.

`CCN(CC)c1cc2oc(=O)ccc2cc1-c1ccc(C#N)cc1` showed an IC50 (Progesterone receptor [1]) of 500 nM.

`O=c1ccc2cc(-c3ccccc3)c(O)cc2o1` was tested, and the IC50 (Progesterone receptor [1]) was 1280 nM.

`CCN(CC)c1cc2oc(=O)ccc2cc1-c1ccc(N)c([N+](=O)[O-])c1` gave an IC50 (Progesterone receptor [1]) of 510 nM.

`COc1cc2oc(=O)ccc2cc1-c1ccccc1` showed an IC50 (Progesterone receptor [1]) of 880 nM.

Work on `CN(C)c1cc2oc(=O)ccc2cc1-c1ccccc1` yielded an IC50 (Progesterone receptor [1]) of 360 nM.

`CN(C)c1cc2oc(=O)ccc2cc1-c1cccc(C#N)c1` showed an IC50 (Progesterone receptor [1]) of 260 nM.

`CCN(CC)c1cc2oc(=O)ccc2cc1-c1ccc(NC(C)=O)cc1` showed an IC50 (Progesterone receptor [1]) of 470 nM.
